Data as given in patent US20040198831A1, “Remedial agent for arthrosis deformans” (priority 2001, published 2004).

Tests used:
model of OA in rabbits = conditions: reported in Inflamm Res 44, Suppl 2, S117-118 (1995); cited from earlier work
[1] = tested on: partial meniscectomy model in rabbits; assay: partial meniscectomy model of osteoarthritis in rabbits (erosion area); format: in vivo, rabbit; conditions: female rabbits, 1, 3 and 10 mg/kg per day, administered twice a day, 7 days after operation, FIG. 1
Method: Efficiencies of the compounds in the present invention on osteoarthrosis were proven, for example, by an experiment of a partial meniscectomy model in rabbits.
Female rabbits (Kbs: NZW (Healthy)) were preliminarily bred for a week and subjected to ablative operation of meniscus by the following method.
Each animal was anesthetized by a subcutaneous injection of 2% parenteral celactal (0.05 ml/kg) to the poll and an intravenous injection of nembutal (20 mg/kg) to the marginal auricle. Their right knees were disinfected with Iodine tincture that dilutes five times with distilled water. If necessary, local anesthesia was performed by dropping 2% of parenteral xylocaine to incised part.
Then, skins and articular capsules outside knees of right hind legs were incised at right angle to patellar ligament, fibular collateral ligaments and sesamoid ligaments were transected. In that case, parenteral solution of bosmin was dropped for the arrest of hemorrhage. […]
After anesthesia by an intravenous injection of parenteral nembutal (40 mg/kg) to marginal auricle, the animals were made to die by venesection and gathered their right knees of joint part. […] After collecting all samples and masking them, their erosion areas were measured with a stereoscopic microscope. […]

rat = assay: toxicity, single oral administration to rat; format: in vivo; conditions: oral administration to rat once
Method: It was considered that the toxicities of the compounds represented by the formula (I) could be very low and safe to use as a medicine. For example, the lowest lethal dose in oral administration of compound (II) to rat once was 2000 mg/kg or more.

COc1ccc(S(=O)(=O)N(Cc2cccnc2)[C@@H](C(=O)NO)C(C)C)cc1.Cl [CGS-27023A, 2(R)-[N-(4-methoxyphenylsulfonyl)-N-(3-pyridylmethyl)amino]-3-methylbutanohydroxamic acid hydrochloride]
effect on a model of OA in rabbits (model of OA in rabbits): could be effect

C[C@@H](C[C@@H](CO)NC(=O)c1ccc(Oc2ccccc2)cc1)C(=O)NO [compound (II), N-hydroxy-5-hydroxy-2(S)-methyl-4(S)-(4-phenoxybenzoyl)aminopentanamide]
inhibitory effect on erosion area of thigh bone [1]: inhibitory effect
lowest lethal dose (rat): ≥ 2000 mg/kg
